Like-named read-outs stand apart in the source and are kept apart here.
How the values were obtained:
[1] = rat, cited from earlier work
[2] = Naringenin concentration in milk of breastfeeding mothers on naringenin-restricted diet, before and after 250 ml red grapefruit juice (HPLC after deconjugation); type: in vivo; conditions: for k el / Cmax / AUC, mean / AUC, median: human milk; for k el: last points; for Cmax / AUC, mean / AUC, median: n 14; for AUC, mean / AUC, median: trapezoidal method
From the text: Prior to enrollment, each volunteer was informed about the course and aim of the study, and signed the informed consent. They were also provided with oral and written instructions on the diet that disallowed consumption of any naringenin-containing foods and beverages. The volunteers agreed to follow the diet and not to take any vitamin supplements or any other food supplements for the duration of their participation in the study. They followed the diet for a total of 5 days, refraining from eating foods containing larger quantities of naringenin, such as citrus fruits, citrus fruit juices, citrus fruit pulps, tomatoes and tomato-containing food products, aromatic herbs. For the first two days of the study (pre-exposure) the volunteers collected breast milk samples every 12 hours, each in the amount of four to six ml. On the third day of the study they drank a single 250 ml serving of red grapefruit juice (a 250 ml bottle) in the morning on an empty stomach. In this part of the experiment, the volunteers collected breast milk samples at the following time points: 0 (directly before drinking the juice) and 1, 2, 3, 4, 5, 6, 12, 18, 24, 36 hours post-exposure. Milk samples were collected from full breasts. Milk was collected into chemically pure disposable plastic test tubes.
The samples were frozen by the volunteers at –20°C, regularly collected from the volunteers by the investigator, transported in a laboratory deep freezer, and frozen to –80°C until analysis. Each sample was labelled with the volunteer's initials and with the date and time of sampling. During the study, we remained in constant telephone contact with the volunteers. A commercial 100% grapefruit juice originating from ecological farms in Israel, in 250 ml bottles, were used in the study. The juice was purchased from a local grocery wholesaler. All the bottles were labelled with the same lot number.
Naringenin was extracted according to the method described by Song et al. with minor changes. In brief, an aliquot (0.5 ml) of undiluted human milk was defatted two times with 2-ml of hexane. After the lipid removal, 25 μl of L-Ascorbic acid (2.7 mmol/l in ultrapure water), 25 μl of Na2-ethylenediaminetetraacetic acid (2.2 mmol/l in ultrapure water) and 3 ml of pepsin (40 mg/ml in 0.1 N HCl) were added. The samples were incubated in a ThermoMixer C (Eppendorf AG., Germany) for 15 min at 37°C and at 300 rpm. Then, the pH of the sample was adjusted to 4.5 with 1.0 N NaOH and 3.86 kU of β-glucuronidase with sulfatase contaminant was added. Afterwards the samples were incubated for 45 min at 37°C and at 300 rpm in a ThermoMixer C. After deconjugation the potential metabolites (glucuronides and sulfate derivatives) to aglycones using β-glucuronidase/sulfatase treatment, naringenin was extracted with a 3-ml aliquot of ethyl acetate of tree times, dried under vacuum and resuspended in 200 μl of mobile phase B before analysis.
Naringenin analysis was done on a Shimadzu HPLC system (Kyoto, Japan), equipped with binary pump (LC-20 AD), degasser (DGU-20A3), refrigerated autosampler (SIL-20 AC, set at 8°C), a column oven (CTO-20 AC, 30°C), a diode array detector (SPD-M20A) and a mass spectrometry detector (2010EV). Separations were performed on Kinetex XB-C18 column (100×2.1 mm, 2.6 μm particle size, Phenomenex) at 0.2 ml min^−1 flow rate. The mobile phase consisted of A: 0.4% formic acid in ultrapure water and B: 0.4% formic acid, 0.4% isopropyl alcohol in methanol. The initial conditions of gradient program were set at 98:2 (A/B) followed by a linear gradient to 55:45 (A/B) at 15 min, 20:80 (A/B) at 30 min, 98:2 (A/B) at 35 min and at 40 min, stop. The injection volume was 10 μl. Naringenin was quantified at 287 nm. MS spectra were acquired in positive ion mode over the range of m/z 50–500, both using SCAN and SIM acquisition mode (the set of SIM included 273,25 m/z). […]

[3] = system: organic anion transporting polypeptide (OATP); parameters: method as in PMID 23794501; conditions: cited from earlier work
[4] = female, human, in vivo, Mean naringenin concentration in human milk

O=C1C[C@@H](c2ccc(O)cc2)Oc2cc(O[C@@H]3O[C@H](CO)[C@@H](O)[C@H](O)[C@H]3O)cc(O)c21 [7-glucoside]
Time at which increase in serum naringenin concentration was observed ([1]; in vivo): three

O=C1C[C@@H](c2ccc(O)cc2)Oc2cc(O)cc(O)c21 [naringenin]
Range of naringenin concentrations in initial (baseline) milk samples ([2]; female, human, in vivo): 420.86 to 1568.89 nmol/L
k el ([2]; female, human, in vivo, 250 ml, post-exposure segment, n 11, read-out: Kel (elimination constant), mean (converted)): 3.89e-06 s⁻¹
k el ([2]; female, human, in vivo, 250 ml, post-exposure segment, n 11, read-out: Kel (elimination constant), median (converted)): 3.61e-06 s⁻¹
Cmax ([2]; female, human, in vivo, 250 ml, post-exposure segment, read-out: Cmax, mean): 908 nM
Cmax ([2]; female, human, in vivo, 250 ml, post-exposure segment, read-out: Cmax, median): 714 nM
Mean naringenin concentration in human milk ([2]; female, human, in vivo, 4 h): 908.253 nmol/L
Mean naringenin concentration in human milk ([2]; female, human, in vivo, 12 h): 868.960 nmol/L
concentration at 0 h [2, 4]: 674 nM
concentration at 1 h [2, 4]: 773 nM
concentration at 2 h [2, 4]: 651 nM
concentration at 3 h [2, 4]: 649 nM
concentration at 4 h [2, 4]: 908 nM
concentration at 5 h [2, 4]: 704 nM
concentration at 6 h [2, 4]: 650 nM
concentration at 12 h [2, 4]: 869 nM
concentration at 18 h [2, 4]: 772 nM
concentration at 24 h [2, 4]: 728 nM
concentration at 36 h [2, 4]: 702 nM
concentration at -12 h [2, 4]: 702 nM
concentration at -24 h [2, 4]: 844 nM
concentration at -36 h [2, 4]: 910 nM
concentration at -48 h [2, 4]: 823 nM
k el ([2]; female, human, in vivo, pre-exposure segment, n 5, read-out: Kel (elimination constant), mean (converted)): 5.56e-06 s⁻¹
k el ([2]; female, human, in vivo, pre-exposure segment, n 5, read-out: Kel (elimination constant), median (converted)): 5.56e-06 s⁻¹
Cmax ([2]; female, human, in vivo, pre-exposure segment, read-out: Cmax, mean): 910 nM
Cmax ([2]; female, human, in vivo, pre-exposure segment, read-out: Cmax, median): 762 nM
Cmax ([2]; post-exposure segment, read-out: Cmax, mean): 908 nM
AUC, mean ([2]; post-exposure, 0 h to 36 h): 27419 (nmol/l)*h
AUC, median ([2]; post-exposure, 0 h to 36 h): 23715 (nmol/l)*h
AUC, mean ([2]; pre-exposure, -36 h to 0 h): 27455 (nmol/l)*h
AUC, median ([2]; pre-exposure, -36 h to 0 h): 26515 (nmol/l)*h
Inhibition of OATP [3]: potent inhibitor
Time at which increase in serum naringenin concentration was observed ([1]; after feeding the compound): three

C[C@@H]1O[C@@H](O[C@H]2[C@H](Oc3cc(O)c4c(c3)O[C@H](c3ccc(O)cc3)CC4=O)O[C@H](CO)[C@@H](O)[C@@H]2O)[C@H](O)[C@H](O)[C@H]1O [naringin, 4’, 5,7-trihydroxyflavanone-7-rhamnoglucoside]
Time at which increase in serum naringenin concentration was observed ([1]; after feeding the compound): ten

Source: PMC5628898, “Does consumption of red grapefruit juice alter naringenin concentrations in milk produced by breastfeeding mothers?” (PLoS ONE, 2017)
